Reference: patent US20090197878A1, “SUBSTITUTED BENZO[d][1,3]OXAZIN-2(4H)-ONES AND RELATED DERIVATIVES AND THEIR USES FOR MODULATING THE PROGESTERONE RECEPTOR” (Wyeth, priority 2008, published 2009)
pIC50: −log10 of the molar value.

What was measured:
[1] = system: alkaline phosphatase activity in T47D cells; assay: Effects of progestins and antiprogestins on alkaline phosphatase activity in T47D cells; type: cell-based; conditions: Homo sapiens; for pIC50: antagonist mode in the presence of 1 nM progesterone, 24 hours; for inhibition at 3 µM: at 3000 nM; for inhibition at 0.3 µM: at 300 nM
Method: The purpose of this example is to identify progestins or antiprogestins by determining a compound's effect on alkaline phosphatase activity in T47D cells.
A. Reagents: • Culture medium: Dulbecco's Modified Eagle Medium (DMEM):F12 (1:1) (GIBCO, BRL) supplemented with 5% (v/v) charcoal stripped fetal bovine serum (not heat-inactivated), 100 U/mL penicillin, 100 μg/mL streptomycin, and 2 mM of the GlutaMax® reagent (GIBCO, BRL). • Alkaline phosphatase assay buffer: • I. 0.1M Tris-HCl, pH 9.8, containing 0.2% Triton® X-100 reagent • II. 0.1M Tris-HCl, pH 9.8, containing 4 mM p-nitrophenyl phosphate (Sigma).
Frozen T47D cells are thawed in a 37° C. water bath and diluted to 280,000 cells/mL in culture medium. To each well in a 96-well plate (Falcon, Becton Dickinson Labware), was added 180 μL of diluted cell suspension. Twenty μL of reference or test compounds diluted in the culture medium is then added to each well. When testing for progestin antagonist activity, reference antiprogestins or test compounds are added in the presence of 1 nM progesterone. The cells are incubated at 37° C. in a 5% CO2/humidified atmosphere for 24 hours. For high throughput screening, one concentration of each compound will be tested at 0.3 μg/mL. Based on an average molecular weight of 300 g/mol for the compounds in the library, the concentration is approximately 1 μM. Compounds active in this assay can be tested in dose response assays to determine EC50 and IC50.
C. Alkaline Phosphatase Enzyme Assay: • At the end of treatment, the medium is removed from the plate. Fifty μL of assay buffer I is added to each well. The plates are shaken in a titer plate shaker for 15 minutes. Then 150 μL of assay buffer II is added to each well. Optical density measurements are taken at 5 minute intervals for 30 minutes at a test wavelength of 405 nm.
D. Analysis of Results: Analysis of Dose-Response Data • For reference and test compounds, a dose response curve is generated for dose (X-axis) vs. the rate of enzyme reaction (slope) (Y-axis). Square root-transformed data are used for analysis of variance and nonlinear dose response curve fitting for both agonist and antagonist modes. Huber weighting is used to down-weight the effects of outliers. EC50 or IC50 values are calculated from the retransformed values. JMP® software (SAS Institute, Inc.) is used for both one-way analysis of variance and non-linear dose response analysis in both single dose and dose response studies.
E. Reference Compounds • Progesterone and trimegestone are reference progestins and RU486 is the reference antiprogestin. All reference compounds are run in full dose response curves and the EC50 and IC50 values are calculated.

[2] = in the presence of 1 nM progesterone

Structure (SMILES) | melting point | inhibition at 3 µM [1, 2] [%] | other results
COC(=O)/C=C/c1ccc2c(c1)C(C)(C)CC(=O)N2 [Example 1, Methyl(2E)-3-(4,4-dimethyl-2-oxo-1,2,3,4-tetrahydroquinolin-6-yl)acrylate] | 174 to 175 °C | – | –
COC(=O)/C=C/c1ccc2c(c1)C(C)(C)OC(=O)N2 [Example 2, Methyl(2E)-3-(4,4-dimethyl-2-oxo-1,4-dihydro-2H-3,1-benzoxazin-6-yl)acrylate] | 204 to 205 °C | – | –
CC1(C)OC(=O)Nc2ccc(/C=C/c3ccno3)cc21 [Example 3, 6-[(E)-2-Isoxazol-5-ylvinyl]-4,4-di-methyl-1,4-dihydro-2H-3,1-benzoxazin-2-one] | 190 to 193 °C | – | –
CC1(C)OC(=O)Nc2ccc(/C=C/C(N)=O)cc21 [Example 4, (2E)-3-(4,4-Dimethyl-2-oxo-1,4-dihydro-2H-3,1-benzoxazin-6-yl)acrylamide] | 196 to 198 °C | – | pIC50 [1]: 4.30
C/C(=C\C(N)=O)c1ccc2c(c1)C(C)(C)OC(=O)N2 [Example 5, (2E)-3-(4,4-Dimethyl-2-oxo-1,4-dihydro-2H-3,1-benzoxazin-6-yl)but-2-enamide] | 198 to 200 °C | – | pIC50 [1]: 4.30
CC1(C)OC(=O)Nc2ccc(/C(=C/C(N)=O)c3ccccc3)cc21 [Example 7, (2E)-3-(4,4-Dimethyl-2-oxo-1,4-dihydro-2H-3,1-benzoxazin-6-yl)-3-phenylacrylamide] | 219 to 220 °C | – | pIC50 [1]: 4.30
CC1(C)OC(=O)Nc2ccc(/C=C/C#N)cc21 [Example 8, (2E)-3-(4,4-Dimethyl-2-oxo-1,4-dihydro-2H-3,1-benzoxazin-6-yl)acrylonitrile] | 238 to 240 °C (dec.) | – | –
CC1(C)OC(=O)Nc2ccc(C3=CC(=O)OCC3)cc21 [Example 10, 4,4-Dimethyl-6-(6-oxo-3,6-dihydro-2H-pyran-4-yl)-1,4-dihydro-2H-3,1-benzoxazin-2-one] | 235 to 236 °C (dec.) | – | –
COC(=O)/C=C(\c1ccccc1)c1ccc2c(c1)C(C)(C)OC(=O)N2 [Example 11, Methyl(2E)-3-(4,4-dimethyl-2-oxo-1,4-dihydro-2H-3,1-benzoxazin-6-yl)-3-phenylacrylate] | 181 to 182 °C | – | –
CC1(C)OC(=O)Nc2ccc(/C=C/C(=O)O)cc21 [Example 14, (2E)-3-(4,4-Dimethyl-2-oxo-1,4-dihydro-2H-3,1-benzoxazin-6-yl)acrylic acid] | 260 to 261 °C (dec.) | 0 | –
C/C(=C\C(=O)O)c1ccc2c(c1)C(C)(C)OC(=O)N2 [Example 15, (2E)-3-(4,4-Dimethyl-2-oxo-1,4-dihydro-2H-3,1-benzoxazin-6-yl)but-2-enoic acid] | 274 to 275 °C (dec.) | 0 | –
C/C(=C\C(N)=O)c1ccc2c(c1)C1(CCCCC1)OC(=O)N2 [Example 16, (2E)-3-(2-Oxo-1,2-dihydrospiro[3,1-benzoxazine-4,1′-cyclohexan]-6-yl)but-2-enamide] | 204 to 207 °C (dec.) | 0 | –
C/C(=C\C#N)c1ccc2c(c1)C1(CCCCC1)OC(=O)N2 [Example 17, (2E)-3-(2-oxo-1,2-dihydrospiro[3,1-benzoxazine-4,1′-cyclohexan]-6-yl)but-2-enenitrile] | 208 to 210 °C (dec.) | – | inhibition at 0.3 µM [1, 2]: 60%
CC/C(=C\C(N)=O)c1ccc2c(c1)C1(CCCCC1)OC(=O)N2 [Example 18, (2E)-3-(2-Oxo-1,2-dihydrospiro[3,1-benzoxazine-4,1′-cyclohexan]-6-yl)pent-2-enamide] | 235 to 238 °C (dec.) | 22 | –
CC/C(=C\C#N)c1ccc2c(c1)C1(CCCCC1)OC(=O)N2 [Example 19, (2E)-3-(2-Oxo-1,2-dihydrospiro[3,1-benzoxazine-4,1′-cyclohexan]-6-yl)pent-2-enenitrile] | 173 to 174 °C | – | inhibition at 0.03 µM ([1]; at 30 nM, in the presence of 1 nM progesterone): 60%
CC(C)/C(=C\C#N)c1ccc2c(c1)C1(CCCCC1)OC(=O)N2 [Example 21, (2E)-4-Methyl-3-(2-oxo-1,2-dihydrospiro[3,1-benzoxazine-4,1′-cyclohexan]-6-yl)pent-2-enenitrile] | 201 to 203 °C (dec.) | – | inhibition at 0.3 µM [1, 2]: 60%
CCC/C(=C\C(N)=O)c1ccc2c(c1)C(CC)(CC)OC(=O)N2 [Example 24, (2E)-3-(4,4-Diethyl-2-oxo-1,4-dihydro-2H-3,1-benzoxazin-6-yl)hex-2-enamide] | 212 to 213 °C | 65 | –
CCC/C(=C\C=O)c1ccc2c(c1)C(CC)(CC)OC(=O)N2 [Example 26, (2E)-3-(4,4-Diethyl-2-oxo-1,4-dihydro-2H-3,1-benzoxazin-6-yl)hex-2-enal] | 173 to 179 °C | 100 | –
